Source: patent publication EP4768479A1 (Hubei Bio-Pharmaceutical Industrial Technological Institute …, priority 2023, dated 2025)

Molecular target: T1, AT2R (Homo sapiens, UniProt P50052)
T1 construct: purchased Cisbio #C1TT1AT2
T1 sequence (P50052 1-363): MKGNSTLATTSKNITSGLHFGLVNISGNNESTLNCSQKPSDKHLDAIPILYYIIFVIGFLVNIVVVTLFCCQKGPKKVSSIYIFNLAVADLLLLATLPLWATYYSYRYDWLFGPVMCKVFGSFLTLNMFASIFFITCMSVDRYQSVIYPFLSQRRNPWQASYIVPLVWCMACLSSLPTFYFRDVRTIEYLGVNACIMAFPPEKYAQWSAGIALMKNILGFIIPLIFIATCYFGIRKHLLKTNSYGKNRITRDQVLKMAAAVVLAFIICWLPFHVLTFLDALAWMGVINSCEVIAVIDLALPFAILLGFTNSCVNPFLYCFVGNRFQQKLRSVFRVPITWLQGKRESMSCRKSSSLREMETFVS
Experiment: Binding assay of compounds to AT2R (Tag-lite HTRF ligand binding kit)
Protocol: The assay was performed in accordance with the manufacturer instructions of Angiotensin AT2 Receptor Ligand Binding Assay Kit (#C1TT1AT2, Cisbio). First, a 10 mM compound stock solution was diluted in a gradient at a 5× dilution ratio (including 10 concentrations, each with two replicates). 160 nL of compounds at different concentrations was added to a 384-well plate. 40 µL of 1× TLB (TLB: Tag-lite buffer) was added to each well, and the mixture was shaken at room temperature for 15 minutes. A 15 mL centrifuge tube added with 5 mL of 1×TLB was prepared in advance. The frozen labeled cells were thawed in a water bath at 37°C (for 1 to 2 minutes), and the thawed cells were quickly transferred to the above 15 mL centrifuge tube. The mixture was mixed well and centrifuged at 1,000 g at room temperature for 5 minutes. The supernatant was removed, and the cells were resuspended by adding 2.7 mL 1× TLB. A new 384-well plate was taken, and 10 µL of mixed cells were added into the corresponding wells according to the assay design. 5 µL of 4× compound solution and 5 µL of 4× Tag-lite red fluorescent labeled ligand were added to each well. After incubation at room temperature for 1 hour, data were read using EnVision with an HTRF mode. The […] at 665nM and 615nM in each well were read respectively, and the ratio was calculated (Ratio=A665nM/B615nM). The IC50 value was calculated by means of GraphPad Prism8 software, where X represents logarithmic value of compound concentration; and Y represents ratio of A665nM/B615nM.

SMILES	IC50
COC(=O)NS(=O)(=O)c1sc(CC(C)C)c(F)c1-c1ccc(Cn2ccnc2Cl)cc1 [Compound I-1, Methyl ((3-(4-((2-chloro-1H-imidazol-1-yl)methyl)phenyl)-4-fluoro-5-isobutylthiophen-2-yl)sulfonyl) carbamate]	6.67 nM
COC(=O)NS(=O)(=O)c1sc(CC(C)C)c(F)c1-c1ccc(Cn2ccnc2C(F)(F)F)cc1 [Compound I-2, Methyl ((4-fluoro-5-isobutyl-3-(4-((2-(trifluoromethyl)-1H-imidazol-1-yl)methyl)phenyl)thiophen-2-yl)sulfonyl) carbamate]	6.56 nM
Cc1c(CC(C)C)sc(S(=O)(=O)NC(=O)NCc2ccccn2)c1-c1ccc(Cn2ccnc2C(F)(F)F)cc1 [Compound I-24]	4.41 nM
CCCCOC(=O)NS(=O)(=O)c1sc(CC(C)C)c(F)c1-c1ccc(Cn2ccnc2C(F)(F)F)cc1 [Compound I-4, Butyl ((4-fluoro-5-isobutyl-3-(4-((2-(trifluoromethyl)-1H-imidazol-1-yl)methyl)phenyl)thiophen-2-yl)sulfonyl)carbamate]	3.46 nM
CCCCOC(=O)NS(=O)(=O)c1sc(CC(C)C)c(F)c1-c1ccc(Cn2ccnc2C(C)(C)O)cc1 [Compound I-3, Butyl ((4-fluoro-3-(4-((2-(2-hydroxypropan-2-yl)-1H-imidazol-1-yl)methyl)phenyl)-5-isobutylthiophen-2-yl)sulfonyl)carbamate]	3.21 nM

Now from value to molecule:

IC50	SMILES
3.88 nM	Cc1c(CC(C)C)sc(S(=O)(=O)NC(=O)OC[C@@H](C)O)c1-c1ccc(Cn2ccnc2Cl)cc1 [Compound I-17, (2R)-2-hydroxypropyl ((3-(4-((2-chloro-1H-imidazol-1-yl)methyl)phenyl)-4-methyl-5-isobutylthiophen-2-yl)sulfonyl)carbamate]
3.88 nM	Cc1c(CC(C)C)sc(S(=O)(=O)NC(=O)OC[C@@H](C)O)c1-c1ccc(Cn2ccnc2C(F)(F)F)cc1 [Compound I-12, (2R)-2-hydroxypropyl ((5-isobutyl-4-methyl-3-(4-((2-(trifluoromethyl)-1H-imidazol-1-yl)methyl)phenyl)thiophen-2-yl)sulfonyl)carbamate]
3.52 nM	Cc1c(CC(C)C)sc(S(=O)(=O)NC(=O)OCCO)c1-c1ccc(Cn2ccnc2Cl)cc1 [Compound I-18, 2-hydroxyethyl ((3-(4-((2-chloro-1H-imidazol-1-yl)methyl)phenyl)-5-isobutyl-4-methylthiophen-2-yl)sulfonyl)carbamate]
4.49 nM	Cc1c(CC(C)C)sc(S(=O)(=O)NC(=O)OC[C@H](C)O)c1-c1ccc(Cn2ccnc2Cl)cc1 [Compound I-16, (2S)-2-hydroxypropyl ((3-(4-((2-chloro-1H-imidazol-1-yl)methyl)phenyl)-4-methyl-5-isobutylthiophen-2-yl)sulfonyl)carbamate]
4.49 nM	Cc1c(CC(C)C)sc(S(=O)(=O)NC(=O)OC[C@H](C)O)c1-c1ccc(Cn2ccnc2C(F)(F)F)cc1 [Compound I-11, (2S)-2-hydroxypropyl ((5-isobutyl-4-methyl-3-(4-((2-(trifluoromethyl)-1H-imidazol-1-yl)methyl)phenyl)thiophen-2-yl)sulfonyl)carbamate]
